Data set [1] in a line: Study of stability in plasma (disappearance of the conjugate by HPLC). To be noted: 37° C. Here is the method:
The mixture was quenched with a CH3CN/MeOH mixture (800 μL) in a ratio of 1:1, swirled for 1 minute, and then filtered through a 0.2 μm filter membrane. 30 μl of the resulting filtrate was analyzed by HPLC, to measure the disappearance of the conjugate.

The subject of the next data set is A549. As to the kind of experiment: cells. Particulars: Homo sapiens, A549, read-out: IC50 A549. As to the method:
(§1) All cell lines were obtained from the American Type Culture Collection, and grown in the following media: COLO 205 and OVCAR-3 (RPMI 1640, containing 4.5 g/L glucose, 10 mM HEPES, 1 mM sodium pyruvate, 10% FBS); HT-29 (McCoy's 5a, containing 1.5 mM L-glutamine, 10% FBS); A549 (Ham's F12K, containing 10% FBS). All cell lines were maintained in an incubator at 37° C. containing 5% CO2. […] Briefly, the day before the start of the experiment the cells were incubated in a 96-well plate in a quantity of 10,000-20,000/well. […] At the end of the incubation period, an MTS dye was added, and then the colored product formazane as formed was measured by a Spectramax 340PC reader (Molecular Devices, CA) at 490 nm.
(§2) A interval was less than 0.100 μM; B interval was greater than 0.100 μM but less than 0.500 μM; C interval was greater than 0.500 μM but less than 2.000 μM; D interval was greater than 2.000 μM.

A further data set relates to COLO 205. The experiment in a line: cells. Particulars: Homo sapiens, COLO 205, read-out: IC50 COLO205. Here is the method:
as §1, §2

Another data set concerns HT-29. The experiment in a line: cells. To be noted: Homo sapiens, HT-29, read-out: IC50 HT 29. Here is the method: as §1, §2
Another data set relates to OVCAR-3. As to the kind of experiment: cells. To be noted: Homo sapiens, OVCAR-3, read-out: IC50 OVCAR3. Here is the method:
as §1, §2

For data set [2] the following is noted: cited from earlier work.
The conditions of data set [3]: loss of midline facial features, uniocular, lack of anatomical features from forebrain; cited from earlier work.

These results are taken from patent publication US8877928B2 (Shandong University, priority 2010, dated 2014).

Structures are written as SMILES.

As for `CC1=C2C[C@H]3[C@@H](CC=C4C[C@@H](O)CC[C@@]43C)[C@@H]2CC[C@]12O[C@@H]1C[C@H](C)CN[C@H]1[C@H]2C` [cyclopamine], the “disappearance % 2 h” value in data set [1] (2 h) was 32%. The “disappearance % 4 h” value in data set [1] (4 h) came to 68%. The “disappearance % 24 h” value in data set [1] (24 h) is 83%. Besides, the IC50 in the data set on A549 is over 2000 nM; in the data set with COLO 205, 100 to 500 nM; in the data set with HT-29 it was 100 to 500 nM; in the data set with OVCAR-3 it was 100 to 500 nM. For the same compound, in data set [2], the “chemical stability at low pH” value is “chemically instable”. Besides, the teratogenicity result in data set [3] is on record as “teratogenic”.
